From US6399313B1, “AMPA-binding human GluR2 receptors” (NPS Allelix Corp., priority 1992, dated 2002)

Molecular target: T1, human GluR2B receptor (Homo sapiens, UniProt P42262)
T1 construct: transported to the cell surface in mature form, lacking the signal peptide and consisting of 862 amino acids; expressed in transfected cells; host or cells: COS-1 (ATCC CRL 1650), transient, plasmid pcDNA1/humGluR2B
Assay: ligand binding assay (NMDA) with membranes of cells producing human GluR2B
Conditions: method for NMDA not described

T1 sequence (P42262 25-883): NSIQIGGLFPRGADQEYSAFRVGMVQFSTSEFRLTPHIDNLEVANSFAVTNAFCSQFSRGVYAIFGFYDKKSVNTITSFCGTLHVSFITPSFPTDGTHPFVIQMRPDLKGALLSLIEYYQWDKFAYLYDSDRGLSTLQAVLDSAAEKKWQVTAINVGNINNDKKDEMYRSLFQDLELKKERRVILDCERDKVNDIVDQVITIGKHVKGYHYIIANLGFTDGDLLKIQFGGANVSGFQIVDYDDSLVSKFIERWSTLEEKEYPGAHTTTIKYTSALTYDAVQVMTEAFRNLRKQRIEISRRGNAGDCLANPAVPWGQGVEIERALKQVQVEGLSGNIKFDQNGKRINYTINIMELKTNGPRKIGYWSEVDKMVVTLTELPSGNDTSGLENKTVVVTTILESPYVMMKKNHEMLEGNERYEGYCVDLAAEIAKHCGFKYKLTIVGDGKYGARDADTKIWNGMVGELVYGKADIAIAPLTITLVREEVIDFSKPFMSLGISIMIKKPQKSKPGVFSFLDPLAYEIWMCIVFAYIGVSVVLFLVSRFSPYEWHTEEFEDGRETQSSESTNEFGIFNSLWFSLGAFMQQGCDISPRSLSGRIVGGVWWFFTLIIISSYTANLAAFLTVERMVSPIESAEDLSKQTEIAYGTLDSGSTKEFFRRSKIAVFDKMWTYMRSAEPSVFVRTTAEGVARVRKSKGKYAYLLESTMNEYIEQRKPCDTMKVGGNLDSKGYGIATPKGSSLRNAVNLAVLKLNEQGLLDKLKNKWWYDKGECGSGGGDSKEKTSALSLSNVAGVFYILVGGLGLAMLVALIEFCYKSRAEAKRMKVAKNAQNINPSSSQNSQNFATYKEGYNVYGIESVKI

Structure (SMILES): CN[C@H](CC(=O)O)C(=O)O [NMDA, N-methyl-D-aspartate]
- binding to human GluR2B receptor (in words): little or no demonstrable binding
